Earlier results on one compound are cited in US20080319015A1, “Insect Repellent Mixture” (priority 2005, published 2008).

In this series the test system is biting mosquitoes. To be noted: proportion of about 10% by weight in a formulation.

For the compound `CCCCN(CCC(=O)OCC)C(C)=O` [ethyl butylacetylaminopropionate, ethyl 3-(N-n-butyl-N-acetylamino)propionate], the protection times entry was “up to 4 hours”.
